The data set in a line: GHS categories as the set defines them, by LD50: 1 up to 5, 2 up to 50, 3 up to 300, 4 up to 2000, 5 above 2000 mg/kg. Particulars: rat; in vivo; po.

With `COc1ccc(C(=O)Nc2ccc(C(N)=O)cc2)cc1[N+](=O)[O-]`, the GHS category was determined as 5.

In turn, `CCOC(=O)C(=O)Nc1cccc(OC)c1C(N)=O` returned a GHS category of 5.

Consider `COc1cc2nc(N3CCN(C(=O)C4COc5ccccc5O4)CC3)nc(N)c2cc1OC` (stereo not given), for which the GHS category is on record as 5.

In the case of `COc1ccccc1C1NC(=O)C(C)S1` (stereo not given), the GHS category turned out to be 5.

In the case of `CN1C(C(=O)Nc2ccccn2)=C(OP2(=O)OCCCO2)c2sc(Cl)cc2S1(=O)=O`, the GHS category came to 2.

As to `CCCCC(=O)O[C@]1(C(=O)COC(C)=O)CC[C@H]2[C@@H]3CCC4=CC(=O)C=C[C@]4(C)[C@H]3[C@@H](O)C[C@@]21C`, the GHS category came to 5.

As to `CC(=O)NC1CCc2nc(N)sc2C1` (stereo not given), the GHS category amounted to 5.

`CCCCOC(=O)c1ccccc1N=Nc1c(O)c(C(=O)Nc2ccc3[nH]c(=O)[nH]c3c2)cc2ccccc12` yielded a GHS category of 5.

As to `CCN(CC)CCc1nc(-c2cccc(O)c2)no1`, the GHS category is listed as 5.

Regarding `CC/C=C\CCOC(=O)CC`, the GHS category is on record as 5.

Take `NCC1CCC(N)C(OC2C(N)CC(N)C(OC3OC(CO)C(O)C(N)C3O)C2O)O1` (stereo not given): the GHS category worked out at 5.

On to `COc1ccc(C=CC(C)=O)cc1`, for which the GHS category amounted to 5.

In turn, `CCN(C)CCC(C#N)(CC=C(C)C)c1cccc2ccccc12` (stereo not given) showed a GHS category of 4.

Take `Cn1c(=O)c2c(ncn2CC(=O)N2CCOCC2)n(C)c1=O`: the GHS category was 5.

`CC1(C)COC(Cn2cncn2)(c2cc3ccccc3o2)OC1` yielded a GHS category of 4.

Take `C=CC(C)(CCC=C(C)C)OC` (stereo not given): the GHS category was determined as 5.

Regarding `CC(Br)(CBr)COc1c(Br)cc(C(C)(C)c2cc(Br)c(OCC(C)(Br)CBr)c(Br)c2)cc1Br` (stereo not given), the GHS category is given as 5.

As to `CCC(C)(C)c1ccccc1`, the GHS category was 5.

`Cc1cc(C)c(NC(=O)c2sc(N)nc2C)c(C)c1`: the GHS category amounted to 4.

The molecule `CCN(CC)c1nc2ccccn2c(=O)c1C=NN1CCOC1=O` had a GHS category of 3.

On to `CCOP(=S)(Oc1cnc(C(C)(C)C)nc1)OC(C)C` (stereo not given), for which the GHS category is 1.

`FC(F)(F)c1cccc(C2=CCN(CCc3ccc4ccccc4c3)CC2)c1` registered a GHS category of 4.

Molecule `Oc1cn2c(n1)Nc1ccc(Cl)c(Cl)c1C2` had a GHS category of 4.

As to `C=CCOc1cc(Cl)ccc1C(=O)NCCN(CC)CC`, the GHS category was 5.

The molecule `CC(=O)O[C@]1(C(C)=O)CC[C@H]2[C@@H]3C[C@H](C)C4=CC(=O)CC[C@]4(C)[C@H]3CC[C@@]21C` showed a GHS category of 5.

Consider `C=CC(=C)CC/C=C(\C)CCC=C(C)C`, for which the GHS category is given as 5.

Consider `CC(C)N1C2CCC1CC(OC(=O)C(CO)c1ccccc1)C2` (stereo not given), for which the GHS category was found to be 4.

For the molecule `c1ccc(C2=NN(c3ccccc3)C(c3ccccc3)C2)cc1` (stereo not given), the GHS category amounted to 5.

`COC(=O)c1sc(N)c(C#N)c1C` displayed a GHS category of 5.

On to `CCOc1ccc(Cc2cc([C@@H]3O[C@H](COC(C)=O)[C@@H](OC(C)=O)[C@H](OC(C)=O)[C@H]3OC(C)=O)ccc2Cl)cc1`, for which the GHS category was found to be 5.

The molecule `CC(C)Oc1cccc(NC(=O)c2ccccc2C(F)(F)F)c1` gave a GHS category of 5.

Molecule `C[C@]12CCC(=O)C=C1C=C[C@@H]1[C@@H]2CC[C@@]2(C)[C@H]1CC[C@@]21CCC(=O)O1` returned a GHS category of 5.

Regarding `O=C(O)c1ccccc1C(=O)c1ccc(-c2ccccc2)cc1`, the GHS category is recorded as 5.

`c1ccc(Nc2ccc(NC3CCCCC3)cc2)cc1` returned a GHS category of 5.

Turning to `CC1Oc2cc(C(=O)c3ccccc3)ccc2NC1=O` (stereo not given), the GHS category came out at 5.

The molecule `CCN(CC)CCOC(=O)c1ccc(-n2c(C)nc3ccccc3c2=O)cc1` displayed a GHS category of 5.

`OB(O)c1cc(F)c(F)c(F)c1`: the GHS category is reported as 4.

As to `CCOC(=O)[C@H](CCc1ccccc1)N[C@H]1CS[C@H](c2cccs2)CN(CC(=O)O)C1=O`, the GHS category was 5.

In the case of `O=S(=O)(O)c1cc(Nc2nc(Cl)nc(N(CCO)CCO)n2)ccc1C=Cc1ccc(Nc2nc(Cl)nc(N(CCO)CCO)n2)cc1S(=O)(=O)O`, the GHS category is 5.

In the case of `NCCS(=O)(=O)O`, the GHS category is listed as 5.

As for `CNC(=O)c1cc(Cl)cc(C)c1NC(=O)c1cc(Br)nn1-c1ncccc1Cl`, the GHS category worked out at 5.

The molecule `CCCNC(=O)c1cnc2ccc(C)cn2c1=O` yielded a GHS category of 3.

`O=C(OCCCc1ccccc1)c1ccccc1` had a GHS category of 5.

The molecule `COC(=O)c1cc(Oc2ccc(C(=O)OC)cc2N)cc(C(=O)OC)c1` yielded a GHS category of 5.

Consider `C=CC(C)C(=O)OCC` (stereo not given), for which the GHS category is reported as 5.

Consider `CO[C@@]1(NC(=O)CSC(F)F)C(=O)N2C(C(=O)O)=C(CSc3nnnn3CCO)CO[C@@H]21`, for which the GHS category was 5.

Consider `CCCCCBr`, for which the GHS category was determined as 5.

Turning to `O=S(=O)(CCl)c1ccc(Br)cc1`, the GHS category turned out to be 5.

Take `CC(C)CCCCCC(=O)NCCCCCC(=O)O`: the GHS category is reported as 5.

For the molecule `Cc1ccc(C(=O)c2cc(O)c(O)c([N+](=O)[O-])c2)cc1`, the GHS category is 5.

For `C=C(C)C1CCC(C)=C1CC(C)(C)COC(=O)CC` (stereo not given), the GHS category turned out to be 5.

In the case of `CCOC(=O)CSc1nc(C(C)(C)C)nn1C(=O)N(C)C`, the GHS category stood at 3.

As to `CNC(=O)C(=NNc1ccc(Cl)c(Cl)c1)C(C)=O`, the GHS category stood at 5.

`CCOc1cc(N)c(Cl)cc1C(=O)NCC1CN(Cc2ccc(F)cc2)CCO1` (stereo not given) registered a GHS category of 5.

The molecule `CCCCCCCCCCCCBr` showed a GHS category of 5.

The molecule `CCOC(=O)c1cc(Br)ccc1OC(N)=O` returned a GHS category of 5.

`CNC(=O)C(=NNc1ccc([N+](=O)[O-])cc1OC)C(C)=O` had a GHS category of 5.

Consider `CCCCCCCN(CCCCCCC)CC(O)c1cc2ccccc2c2cc(Br)ccc12` (stereo not given), for which the GHS category worked out at 5.

For `ClC1=C(Cl)C2(Cl)C3COCC3C1(Cl)C2(Cl)Cl` (stereo not given), the GHS category is 5.

Regarding `FC(F)CCl`, the GHS category is listed as 5.

Regarding `CCCCCCCCC(O)CCO` (stereo not given), the GHS category is reported as 5.

`CCOC(=O)C1CN(C)C2CCCC(C)N2C1=O` (stereo not given) displayed a GHS category of 5.

Turning to `CCCCNC(=O)c1cnc2cccc(C)n2c1=O`, the GHS category was 3.

Take `CCCCCCCC(=O)OCCC(C)O` (stereo not given): the GHS category is reported as 2.

The molecule `C=CC(C)(O)CCC=C(C)CC(C)C` (stereo not given) displayed a GHS category of 5.

`C=Cc1ccc(O)c(C=C)c1` gave a GHS category of 5.

As to `OCC(O)C1OC(c2ccco2)OC(CO)C1O` (stereo not given), the GHS category is listed as 5.

As to `CCCc1c(Cc2ccc(-c3ccccc3-c3nn[nH]n3)cc2)c(N(CC)CC)nc2ncnn12`, the GHS category was 4.

Regarding `C[C@@H]1CCO[C@@](Cn2cncn2)(c2cc3ccccc3o2)O1`, the GHS category was 4.

As for `CC(C)(c1ccccc1)c1ccc(Nc2ccc(C(C)(C)c3ccccc3)cc2)cc1`, the GHS category is reported as 5.

In turn, `CCCc1nc2ncnn2c(CCC)c1Cc1ccc(-c2ccccc2-c2nn[nH]n2)cc1` displayed a GHS category of 4.

For `CNC(=O)C(=NNc1cccc(Cl)c1Cl)C(C)=O`, the GHS category is given as 5.

Take `CC(=O)OC1CCC2CCCCC2C1` (stereo not given): the GHS category stood at 5.

As for `O=C(O)CCCCCNc1nc(NCCCCCC(=O)O)nc(NCCCCCC(=O)O)n1`, the GHS category stood at 5.

With `CCOC(=O)C(F)(F)F`, the GHS category is listed as 5.

For the molecule `COC(=O)C(C=O)c1ccccc1` (stereo not given), the GHS category is reported as 4.

Regarding `CCCCCOC(=O)CCCC`, the GHS category is reported as 5.

Take `CCCCC(CC)C(=O)OOC(C)(C)C` (stereo not given): the GHS category was 5.

Take `Cc1cc2c(cc1S(N)(=O)=O)S(=O)(=O)CCC2`: the GHS category is recorded as 5.

Molecule `CCOC(=O)C(=O)Nc1ccncn1` registered a GHS category of 4.

As for `CCOC1(c2ccco2)CCN(CCc2ccccc2)CC1C` (stereo not given), the GHS category came to 2.

For `CCCCCCCCCC(=O)N(C)C`, the GHS category stood at 5.

For the molecule `CC(SC(=O)c1cccs1)C(=O)NC1CCSC1=O` (stereo not given), the GHS category came out at 5.

Molecule `CCCNC(=O)c1sc(-c2ccccc2OC)nc1C` had a GHS category of 5.

Take `N#C[Se]Cc1ccc(C[Se]C#N)cc1`: the GHS category is recorded as 4.

The molecule `CC(=O)OC1CN(C)C(=O)N1c1cc(C(C)(C)C)on1` (stereo not given) came in with a GHS category of 4.

Consider `Cc1cc(C(C)(CC(=O)OCCOC(=O)CC(C)(c2ccc(O)c(C(C)(C)C)c2)c2ccc(O)c(C(C)(C)C)c2)c2ccc(O)c(C(C)(C)C)c2)cc(C(C)(C)C)c1O` (stereo not given), for which the GHS category came out at 5.

`Cc1cc(S(=O)(=O)O)c(/N=N/c2c(O)c(C(=O)O)cc3ccccc23)cc1Cl` came in with a GHS category of 5.

The molecule `CCCCOC(=O)C(C)C` returned a GHS category of 5.

The molecule `C[C@H]1C[C@@H]2[C@H]([C@@H](O)C[C@@]3(C)[C@H]2CC[C@]3(O)C(=O)COC(=O)CCC(=O)O)[C@@]2(C)C=CC(=O)C=C12` returned a GHS category of 5.

Take `CCCC(=O)N(C)C(=O)Oc1cccc2c1OCO2`: the GHS category stood at 4.

With `CCCCCCOC(=O)C(C)CC` (stereo not given), the GHS category was 5.

With `NC(=O)NC(c1ccccc1)c1ccccc1`, the GHS category was determined as 5.

As to `O=C1Nc2ccccc2C1=O`, the GHS category is given as 5.

In the case of `CCCC(=O)OCC(C)C`, the GHS category was found to be 5.

As to `CCCC(=O)O[C@]1(C(=O)COC(C)=O)CC[C@H]2[C@@H]3C[C@H](F)C4=CC(=O)C=C[C@]4(C)[C@@]3(F)[C@@H](O)C[C@@]21C`, the GHS category worked out at 5.

With `O=C1OCC[C@@H]1O`, the GHS category amounted to 5.

Molecule `CC1OC(Cn2cncn2)(c2cc3ccccc3o2)OC1C` (stereo not given) registered a GHS category of 4.

In the case of `Clc1ccc(CSc2ccc(Cl)cc2)cc1`, the GHS category was determined as 5.

In turn, `CN(C)CCCNc1nc2cc(Cl)ccc2o1` returned a GHS category of 4.

On to `CN(C(=O)CNCP(=O)(O)O)S(C)(=O)=O`, for which the GHS category is recorded as 2.

In turn, `CC(=O)C(C)O` (stereo not given) registered a GHS category of 5.

Molecule `CCCOC(=O)Cc1ccc(OCC(=O)N(CC)CC)c(OC)c1` had a GHS category of 5.

On to `COC1(NC(=O)C2SC(=C(C(N)=O)C(=O)O)S2)C(=O)N2C(C(=O)O)=C(CSc3nnnn3C)CSC21` (stereo not given), for which the GHS category stood at 5.

On to `C=C(C)C(=O)NCCC[N+](C)(C)C`, for which the GHS category amounted to 5.

The values are drawn from the CATMoS acute toxicity set (Mansouri et al. 2021).
